Experimental data: publication PMC11225515, “6-Bromo quinazoline derivatives as cytotoxic agents: design, synthesis, molecular docking and MD simulation” (BMC Chemistry, 2024)
Like-named read-outs stand apart in the source and are kept apart here.

Tests used:
[1] = tested on: MCF-7 (breast carcinoma) cell line; experiment: MTT cytotoxic assay, MCF-7; format: cell-based; details: for IC50: MTT, 72 h, 3 repetitions, read-out: IC50 ± SD MCF-7
Experimental: The antiproliferative activity of all the synthesized compounds (8a-8 h) was done by MTT (standard 3-(4,5-dimethylthiazol-yl)-2,5-diphenyl-tetrazolium bromide) assay according to our previous protocols. MCF-7 (breast carcinoma) and SW480 (Colorectal carcinoma) cell lines were choose and purchased from the National Cell Bank of Iran (NCBI, Pasteur Institute, Tehran, Iran). RPMI 1640 culture media with 10% fetal bovine serum (FBS) and 1% penicillin-streptomycin (Gibco, USA) were applied as culture. Trypsin/EDTA 0.5% solution (Gibco/USA) was used to harvest cells and then, the cells were seeded at a density of 1 × 10^4 cells per well in 96-well microplates. […] Three untreated wells were applied as the negative control. After 72 h, the media was changed by 100 µL fresh MTT solution and incubated for 4 h at 37 °C in the incubator to achieve formazan purple crystals. Finally, the media was removed and 150 µL of DMSO was added and incubated at 37 °C in the dark for 10 min to dissolve the crystals. A Microplate ELISA reader was applied to read the absorbance of individual wells at 490 nm. Analysis of the data was obtained by Excel 2016 and Curve Expert 1.4. The data was expressed as the mean ± SD for each analysis. GraphPad Prism software was used to perform one-way ANOVA statistical analyses, followed by Tukey’s multiple comparison test.

[2] = tested on: SW480 (Colorectal carcinoma) cell line; experiment: MTT cytotoxic assay, SW480; format: cell-based; details: Homo sapiens, 72 h, 3 repetitions, read-out: IC50 ± SD SW480
Experimental: The antiproliferative activity of all the synthesized compounds (8a-8 h) was done by MTT (standard 3-(4,5-dimethylthiazol-yl)-2,5-diphenyl-tetrazolium bromide) assay according to our previous protocols. MCF-7 (breast carcinoma) and SW480 (Colorectal carcinoma) cell lines were choose and purchased from the National Cell Bank of Iran (NCBI, Pasteur Institute, Tehran, Iran). RPMI 1640 culture media with 10% fetal bovine serum (FBS) and 1% penicillin-streptomycin (Gibco, USA) were applied as culture. Trypsin/EDTA 0.5% solution (Gibco/USA) was used to harvest cells and then, the cells were seeded at a density of 1 × 10^4 cells per well in 96-well microplates. Five different concentrations of the derivatives and Cisplatin as the positive control (1 to 200 µM) were used for treatment in triplicate times. Three untreated wells were applied as the negative control. After 72 h, the media was changed by 100 µL fresh MTT solution and incubated for 4 h at 37 °C in the incubator to achieve formazan purple crystals. Finally, the media was removed and 150 µL of DMSO was added and incubated at 37 °C in the dark for 10 min to dissolve the crystals. A Microplate ELISA reader was applied to read the absorbance of individual wells at 490 nm. Analysis of the data was obtained by Excel 2016 and Curve Expert 1.4. The data was expressed as the mean ± SD for each analysis. GraphPad Prism software was used to perform one-way ANOVA statistical analyses, followed by Tukey’s multiple comparison test.

MRC-5 normal cell line = experiment: MTT cytotoxic assay, normal cell line MRC-5; format: cell-based; details: read-out: IC50 ± SD MRC-5
[3] = Homo sapiens, MRC5, 3 repetitions

Row | melting point [°C] | Structure (SMILES) | IC50 ([1]; Homo sapiens, MCF7) [µM] | times more potent than Erlotinib in MCF-7 cell line ([1]; cytotoxic activity compared with Erlotinib) | IC50 [2] [µM] | IC50 (MRC-5 normal cell line; [3]) [µM] | IC50 [1] [µM] | IC50 (MRC-5 normal cell line; 3 repetitions) [µM]
1 | 140 to 142 | O=c1c2cc(Br)ccc2nc(SCc2ccccc2)n1-c1ccccc1 [8c, 2-(benzylthio)-6-bromo-3-phenylquinazolin-4(3 H )-one] | 142 ± 3.95 |  | 170.1 ± 1.34 | > 100 |  | 
2 | 101 to 103 | Cc1cccc(CSc2nc3ccc(Br)cc3c(=O)n2-c2ccccc2)c1 [8d, 6-bromo-2-((3-methylbenzyl)thio)-3-phenylquinazolin-4(3 H )-one] | 59.1 ± 3.73 |  | 72.5 ± 2.9 | > 100 |  | 
3 | 164 to 166 | Cc1ccc(CSc2nc3ccc(Br)cc3c(=O)n2-c2ccccc2)cc1 [8e, 6-bromo-2-((4-methylbenzyl)thio)-3-phenylquinazolin-4(3 H )-one] | 35.1 ± 3.02 |  | 63.1 ± 1.63 | > 100 |  | 
4 | 145 to 147 | O=c1c2cc(Br)ccc2nc(SCc2ccc(Cl)cc2)n1-c1ccccc1 [8f, 6-bromo-2-((4-chlorobenzyl)thio)-3-phenylquinazolin-4(3 H )-one] | 52.5 ± 2.92 |  | 72.2 ± 1.41 | > 100 |  | 
5 | 175 to 177 | O=c1c2cc(Br)ccc2nc(SCc2ccc(Br)cc2)n1-c1ccccc1 [8g, 6-bromo-2-((4-bromobenzyl)thio)-3-phenylquinazolin-4(3 H )-one] | 62.4 ± 3.32 |  | 68.4 ± 2.62 | > 100 |  | 
6 | 231 to 233 | O=c1c2cc(Br)ccc2nc(SCc2ccc([N+](=O)[O-])cc2)n1-c1ccccc1 [8h, 6-bromo-2-((4-nitrobenzyl)thio)-3-phenylquinazolin-4(3 H )-one] | 73.4 ± 3.09 |  | 65.4 ± 2.8 | > 100 |  | 

The next lines start with the compound.

Row | Structure (SMILES) | melting point [°C] | IC50 ([1]; Homo sapiens, MCF7) [µM] | times more potent than Erlotinib in MCF-7 cell line ([1]; cytotoxic activity compared with Erlotinib) | IC50 [2] [µM] | IC50 (MRC-5 normal cell line; [3]) [µM] | IC50 [1] [µM] | IC50 (MRC-5 normal cell line; 3 repetitions) [µM]
7 | CCCCSc1nc2ccc(Br)cc2c(=O)n1-c1ccccc1 [8a, 6-bromo-2-(butylthio)-3-phenylquinazolin-4(3 H )-one] | 128 to 130 | 15.8 ± 1.48 | about 2 times | 17.9 ± 0.92 | 84.2 ± 1.72 |  | 
8 | CCCCCSc1nc2ccc(Br)cc2c(=O)n1-c1ccccc1 [8b, 6-bromo-2-(pentylthio)-3-phenylquinazolin-4(3 H )-one] | 99 to 101 | 18.2 ± 2.01 |  | 56.5 ± 2.83 | 76.4 ± 2.62 |  | 
9 | N.N.[Cl][Pt][Cl] [Cisplatin, reference compound] |  |  |  |  |  | 9.9 ± 0.14 | 45.2 ± 2.5
10 | COc1cccc2c1C(=O)c1c(O)c3c(c(O)c1C2=O)C[C@@](O)(C(=O)CO)C[C@@H]3O[C@H]1C[C@H](N)[C@H](O)[C@H](C)O1 [Doxorubicin, reference compound] |  | 2.5 ± 0.64 |  | 3.67 ± 0.24 | 0.52 ± 0.07 |  | 
11 | C#Cc1cccc(Nc2ncnc3cc(OCCOC)c(OCCOC)cc23)c1 [Erlotinib, reference compound] |  |  |  | 11.2 ± 0.38 | 22.9 ± 3.1 |  | 
